Test results: patent US9254266B2, “Inhibiting surface enhanced crystallization of amorphous pharmaceuticals with ultrathin coatings” (Wisconsin Alumni Research Foundation, priority 2007, dated 2016)
≈ marks a conversion by molar mass, not a printed value.

Tests used:
Type in all cases: physicochemical
[1] = Crystallization of amorphous IMC powder on storage (XRPD, DSC)
Description: The particles were sieved through to a 75 μm screen, transferred to a 200 ml beaker containing 100 ml of the PDDA solution, and kept in contact with the solution for 15 minutes. The suspension was filtered through #2 Whatman filter paper to remove the supernatant and washed with Milli-Q water. Vacuum was then applied to dry the particles for at least 3 hrs.
X-ray powder diffraction (XRPD). XRPD was performed with a Bruker D8 Advance X-ray diffractometer, which was equipped with a CuKα source (λ=1.54056 Å) operating at a tube load of 40 kV and 40 mA. The divergence slit size was 1 mm, the receiving slit, 1 mm, and the detector slit, 0.1 mm. Data was collected by a high-resolution Sol-X detector. Each sample was scanned between 2 and 40° (2θ) with a step size of 0.02° and a maximum scan rate of 3 s/step. The NIST standard SRM 1976 was used to check the instrument's calibration and performance. Samples of small quantities were analyzed on a Si(510) zero-background holder. Polarized light microscopy (PLM) was performed with a Nikon Optiphot Pol 2 microscope equipped with an Olympus video camera. The video image was calibrated against a 1-mm stage micrometer (100 divisions). Differential scanning calorimetry (DSC) was conducted in crimped Al pans using a TA Instruments Q1000 unit under 50 mL/min N2 purge.
The larger the exotherm, the greater the amorphous fraction before DSC analysis. […]

[2] = Flowability measurements and tablet properties of IMC powder
Description: Flowability measurements. […] To determine tapped density and compressibility, approximately 1.5 g of powder was poured into a 10-ml cylinder. The initial volume (V0) yielded the initial bulk density D0 (“fluff or poured bulk density”). The powder was then tapped for 5 minutes to obtain the final bulk volume (Vf) and the final bulk density Df (“equilibrium, tapped or consolidated bulk density”). The percent (%) compressibility (Carr's Index) was calculated from (Df−D0)/Df×100, which is another measure of powder flowability (% compressibility higher than 40% is thought to indicate a non-flowing, cohesive powder; % compressibility lower than 28% is thought to indicate a fluid to free-flowing powder).
Uncoated amorphous IMC powder was cohesive and flowed with difficulty, while the coated powder flowed more easily. For the uncoated powder, the angle of repose was 36°, signifying acceptable flowability.

[3] = Intrinsic dissolution rate (IDR), USP Dissolution Apparatus II; conditions: 0.1 M phosphate buffer pH 7.2, 37° C.; for IDR: 50 RPM, first 15 minutes, no storage
Description: Measurement of intrinsic dissolution rate (IDR). The IDR was measured using a USP Dissolution Apparatus II (rotating paddle, model RC-8D, Vanguard, Spring, Tex.) following standard procedures. […] Tablets without visible chipping or surface imperfection were used for dissolution measurement. Each tablet used for IDR measurement was coated on one side and around the rim with water-impervious shellac (clear nail polish) that contained as the primary ingredient tosylamide epoxy resin. Conditions of the IDR measurement were as follows: 500 ml of 0.1 M phosphate buffer (pH 7.2), 50 RPM of paddle speed, 1 inch between the tablet and the paddle, and 37° C. Samples were taken every 2.5 minutes up to 15 minutes, every 5 minutes up to 30 minutes, and every 10 minutes up to 60 minutes. Each sample (2 ml) of the solution was drawn with a syringe and filtered through a 0.22-μm filter needle. The sample's concentration was determined by UV-visible spectrometry at 318 nm. The analyzed solution was returned to the dissolution vessel to maintain the constant volume. For each amorphous IMC material studied (with and without coating, with and without aging), the IDR measurement was performed six times with three independently prepared materials as described above.
As shown above in FIG. 4, because one layer of PDDA was nearly as effective as several layers of PDDA and PSS in inhibiting surface crystallization, this example used materials coated with a single layer of PDDA. Moreover, thinner coatings are expected to maximize the rate of dissolution. […] For comparison, the IDR of γ IMC was also measured. Each data point in FIG. 8 is the average of six measurements. For each sample of amorphous IMC (uncoated or coated), the six measurements were performed with three independently prepared materials (including melting, grinding, coating, and tableting). […] Similarly, it is assumed that the IDR of amorphous IMC was measured under a sink condition.

[4] = Zeta potential of IMC particles; conditions: particles suspended in 0.01 M NaCl
Description: Zeta potentials were measured with a ZetaSizer 3000HSA (Malvern Instruments, USA). Sample particles (ca. 5 mg) were dispersed in 0.01 M NaCl. […] Each reported result was the average of three measurements.
Before coating amorphous IMC by this method, the sign of its surface charge in a coating solution was determined. […] (The pH of the coating solutions was 6.1 (PDDA) and 6.4 (PSS)). […] Coating with one layer of PDDA reversed the surface charge to positive (ζ-potential=+37 mV); adding the next layer (PSS) reversed the surface charge to negative again (ζ-potential=−32 mV); and so on.

[5] = Surface crystallization and crystal growth of amorphous IMC films (light microscopy)
Description: Deposition of gold coatings. A Denton Vacuum Desk II (Denton Vacuum, Moorestown, N.J.) was used to deposit a gold coating on amorphous IMC. […] Under these conditions, the deposition rate was ca. 10 nm/30 s, providing a gold coating of about 10 nm in thickness. […] The coated film was golden and reflective. Deposition of LbL polyelectrolyte coatings on amorphous films. […] (Tg−20° C.), and gently removing one cover glass. To coat several films at once, they were loaded into a Teflon rack and immersed into the PDDA solution for 15 minutes. The samples were washed twice in Milli-Q water to remove the excess PDDA and immersed in the PSS solution. This procedure was repeated until the desired number of polymer layers was reached. The coated samples were left on a Whatman filter paper to remove the excess liquid on the slide and dried in a vacuum (0.4 mTorr) at 22° C. for 3 hrs. X-ray powder diffraction (XRPD). XRPD was performed with a Bruker D8 Advance X-ray diffractometer, which was equipped with a CuKα source (λ=1.54056 Å) operating at a tube load of 40 kV and 40 mA. The divergence slit size was 1 mm, the receiving slit, 1 mm, and the detector slit, 0.1 mm. Data was collected by a high-resolution Sol-X detector. Each sample was scanned between 2 and 40° (2θ) with a step size of 0.02° and a maximum scan rate of 3 s/step. The NIST standard SRM 1976 was used to check the instrument's calibration and performance. Samples of small quantities were analyzed on a Si(510) zero-background holder. Polarized light microscopy (PLM) was performed with a Nikon Optiphot Pol 2 microscope equipped with an Olympus video camera. The video image was calibrated against a 1-mm stage micrometer (100 divisions). Differential scanning calorimetry (DSC) was conducted in crimped Al pans using a TA Instruments Q1000 unit under 50 mL/min N2 purge. […] (Tg−2° C.). […] The crystals were birefringent. […] All samples were tested at 40° C. in a desiccator. […] Moreover, coating a partially crystallized sample with gold inhibited further crystallization. […] The set of experiments was again performed with amorphous IMC films prepared on microscope cover glasses. […] By contrast, only a small percentage of a coated surface was covered by crystals (white spots in the pictures) under the same conditions (FIG. 4b). Moreover, the crystals that did form on the coated surface grew much more slowly than those on the uncoated surface.

[6] = Water contact angle on amorphous IMC film; conditions: 22° C., 70% R.H.
Description: Contact Angle Measurements. The measurements were performed at 22° C. and 70% R.H. using a method similar to that of Zografi and Tam. […] The water droplet thus formed was about 3 mm in diameter. A side view of the droplet was recorded with a digital camera and the contact angle was measured from the image (Image J1.34 S). Each amorphous film was measured three times at different sites. Three samples were measured for each coating condition.
The water contact angle characterizes the wetting ability of the surface. The measurement was performed with amorphous IMC films on microscope cover glasses. […] The contact angle increased and decreased accordingly with additional layers of PDDA and PSS.

[7] = Solubility of γ IMC in buffer; conditions: aqueous buffer, thermodynamic from solid; 0.1 M PBS buffer pH 7.2, 37° C.

| solid state of powder after 2 days (PXRD) ([1]; 2 days at 40° C., powder sieved through 75 μm) | DSC crystallization exotherm after 2 days ([1]; 2 days of storage at 40° C.) | % Compressibility ([2]; Carr's Index, (Df−D0)/Df×100) | angle of repose ([2]; powder) | angle of repose ([2]; powder sieved through 75 μm screen) | Tapped Density ([2]; powder tapped for 5 minutes) | Tablet Bulk Density ([2]; tablets made with a Carver press) | Tablet Porosity ([2]; true density of 1.31 g/cm^3 used) | time until tablet began crystallizing to α IMC in the dissolution medium [3] | IDR ([3]; listed as Uncoated) | IDR after 2 d ([3]; after 2 days of storage at 40° C.) | ζ-potential [4] | surface crystallization in vacuum compared with desiccated ambient air ([5]; 0.4 mTorr and 22° C.) | surface covered by crystals after 20 days ([5]; 15 μm films on cover glasses, 20 days at 40° C.) | crystallization of film between two cover glasses ([5]; below Tg (42° C.), no free surface) | appearance of crystals at free surface ([5]; one cover glass removed, 40° C.) | water contact angle [6] | IDR [3] | solubility [7] | Structure (SMILES) | coverage of free surface with crystals on storage ([5]; uncoated film, 40° C.) |
| --- | --- | --- | --- | --- | --- | --- | --- | --- | --- | --- | --- | --- | --- | --- | --- | --- | --- | --- | --- | --- |
| crystallized into γ IMC | disappears | 42 ± 1% | 36 ° | 36.1 ± 2.3 | 0.52 ± 0.03 g/mL | 1.07 ± 0.03 g/mL | 18 ± 2% | approximately 20 minutes | 0.56 mg/cm^2/min | 0.10 mg/cm^2/min | −41 mV | same rate of crystal growth | completely covered with crystals | does not crystallize for months | crystals appear in days | 44 ° |  |  | COc1ccc2c(c1)c(CC(=O)O)c(C)n2C(=O)c1ccc(Cl)cc1 [amorphous IMC, 1-(p-chlorobenzoyl)-5-methoxy-2-methylindole-3-acetic acid] | After two or three weeks, the surface was fully covered with crystals |
|  |  |  |  |  |  |  |  |  |  |  | negatively charged |  |  |  |  |  | 0.07 mg/cm^2/min | 1500 µg/mL (≈ 4.19 mM) | COc1ccc2c(c1)c(CC(=O)O)c(C)n2C(=O)c1ccc(Cl)cc1 [γ IMC, 1-(p-chlorobenzoyl)-5-methoxy-2-methylindole-3-acetic acid] |  |
